Tested on: MV-4-11 cells
Test: Gene expression microarray analysis (Affymetrix PrimeView) and GSEA
Assay type: cell-based, human
Design: RFU PODN (11730768_x_at) / Fold change /veh PODN (11730768_x_at) / RFU LINC00158 (11744669_a_at) / Fold change /veh LINC00158 (11744669_a_at) / RFU DUSP10 (11751237_a_at) / Fold change /veh DUSP10 (11751237_a_at) / RFU ID3 (11757404_x_at) / Fold change /veh ID3 (11757404_x_at) / RFU PLEKHG5 (11737974_s_at) / Fold change /veh PLEKHG5 (11737974_s_at) / RFU LRRC4B (11730491_at) / Fold change /veh LRRC4B (11730491_at) / RFU GIMAP4 (11747438_a_at) / Fold change /veh GIMAP4 (11747438_a_at) / RFU KRT8 (11758183_x_at) / Fold change /veh KRT8 (11758183_x_at) / RFU CNN1 (11734310_a_at) / Fold change /veh CNN1 (11734310_a_at) / RFU VPS37D (11726825_at) / Fold change /veh VPS37D (11726825_at) / RFU C10orf10 (11716522_x_at) / Fold change /veh C10orf10 (11716522_x_at) / RFU KIR2DL2 /// KIR2DL4 /// KIR2DL5A /// KIR2DL5B /// KIR2DS1 /// KIR2DS2 /// KIR2DS3 /// KIR2DS4 /// KIR3DL3 /// KIR3DL3 /// KIR3DS1 (11738374_at) / Fold change /veh KIR2DL2 /// KIR2DL4 /// KIR2DL5A /// KIR2DL5B /// KIR2DS1 /// KIR2DS2 /// KIR2DS3 /// KIR2DS4 /// KIR3DL3 /// KIR3DL3 /// KIR3DS1 (11738374_at) / RFU C1QL1 (11718748_at) / Fold change /veh C1QL1 (11718748_at) / RFU TMPRSS4 (11747572_a_at) / Fold change /veh TMPRSS4 (11747572_a_at) / RFU HAMP (11756126_x_at) / Fold change /veh HAMP (11756126_x_at) / RFU RNFT2 (11725882_a_at) / Fold change /veh RNFT2 (11725882_a_at) / RFU NR4A2 (11747474_a_at) / Fold change /veh NR4A2 (11747474_a_at) / RFU ABCC12 (11746883_a_at) / Fold change /veh ABCC12 (11746883_a_at) / RFU TMEM136 (11760407_x_at) / Fold change /veh TMEM136 (11760407_x_at) / RFU CLDN22 /// WWC2 (11732394_at) / Fold change /veh CLDN22 /// WWC2 (11732394_at) / RFU HLA-DPB1 (11760878_x_at) / Fold change /veh HLA-DPB1 (11760878_x_at) / RFU SPINT1 (11716480_a_at) / Fold change /veh SPINT1 (11716480_a_at) / RFU GAP43 (11754022_s_at) / Fold change /veh GAP43 (11754022_s_at) / RFU A4GNT (11735810_at) / Fold change /veh A4GNT (11735810_at) / RFU PRB3 (11715151_x_at) / Fold change /veh PRB3 (11715151_x_at) / RFU TUBB4B (11761932_at) / Fold change /veh TUBB4B (11761932_at) / RFU CAPN14 (11732068_a_at) / Fold change /veh CAPN14 (11732068_a_at) / RFU TMCC2 (11721928_a_at) / Fold change /veh TMCC2 (11721928_a_at) / RFU IRGQ (11745062_a_at) / Fold change /veh IRGQ (11745062_a_at) / RFU FAM174B (11720279_a_at) / Fold change /veh FAM174B (11720279_a_at) / RFU TMPRSS4 (11748680_a_at) / Fold change /veh TMPRSS4 (11748680_a_at) / RFU FAM212B (11763350_a_at) / Fold change /veh FAM212B (11763350_a_at) / RFU PLEKHG5 (11743358_a_at) / Fold change /veh PLEKHG5 (11743358_a_at) / RFU ZSCAN30 (11745921_a_at) / Fold change /veh ZSCAN30 (11745921_a_at) / RFU CMKLR1 (11741424_a_at) / Fold change /veh CMKLR1 (11741424_a_at) / RFU LOC101060620 /// MAPK8IP1 (11723275_at) / Fold change /veh LOC101060620 /// MAPK8IP1 (11723275_at) / RFU SPTSSB (11747773_x_at) / Fold change /veh SPTSSB (11747773_x_at) / RFU PRSS12 (11739890_at) / Fold change /veh PRSS12 (11739890_at) / RFU BIN1 (11741810_x_at) / Fold change /veh BIN1 (11741810_x_at) / RFU WNT11 (11732464_a_at) / Fold change /veh WNT11 (11732464_a_at) / RFU C10orf10 (11716521_a_at) / Fold change /veh C10orf10 (11716521_a_at) / RFU C5orf56 (11738089_at) / Fold change /veh C5orf56 (11738089_at) / RFU CYB561 (11721691_x_at) / Fold change /veh CYB561 (11721691_x_at) / RFU ANKRD19P (11752326_a_at) / Fold change /veh ANKRD19P (11752326_a_at) / RFU OR2T12 /// OR2T33 /// OR2T8 (11738714_s_at) / Fold change /veh OR2T12 /// OR2T33 /// OR2T8 (11738714_s_at) / RFU VCAN (11748164_a_at) / Fold change /veh VCAN (11748164_a_at) / RFU JSRP1 (11732532_at) / Fold change /veh JSRP1 (11732532_at) / RFU KRTAP10-11 (11738290_x_at) / Fold change /veh KRTAP10-11 (11738290_x_at) / RFU MYO3A (11730013_a_at) / Fold change /veh MYO3A (11730013_a_at) / RFU EBF3 (11725865_a_at) / Fold change /veh EBF3 (11725865_a_at) / RFU CAMK2N1 (11719241_x_at) / Fold change /veh CAMK2N1 (11719241_x_at) / RFU C5orf56 (11738088_a_at) / Fold change /veh C5orf56 (11738088_a_at) / RFU OLFML3 (11715873_a_at) / Fold change /veh OLFML3 (11715873_a_at) / RFU LOC100653217 /// NTM (11731650_a_at) / Fold change /veh LOC100653217 /// NTM (11731650_a_at) / RFU MAPK11 (11762145_a_at) / Fold change /veh MAPK11 (11762145_a_at) / RFU FIZ1 (11724087_x_at) / Fold change /veh FIZ1 (11724087_x_at) / RFU OASL (11726364_x_at) / Fold change /veh OASL (11726364_x_at) / RFU SOX15 (11748057_x_at) / Fold change /veh SOX15 (11748057_x_at) / RFU CD79A (11719716_a_at) / Fold change /veh CD79A (11719716_a_at) / RFU HIST1H1D (11736915_at) / Fold change /veh HIST1H1D (11736915_at) / RFU CASKIN2 (11723855_a_at) / Fold change /veh CASKIN2 (11723855_a_at) / RFU LOC730098 (11760151_x_at) / Fold change /veh LOC730098 (11760151_x_at) / RFU OR4N2 (11742367_at) / Fold change /veh OR4N2 (11742367_at) / RFU PRRT2 (11749266_a_at) / Fold change /veh PRRT2 (11749266_a_at) / RFU SNX32 (11753110_a_at) / Fold change /veh SNX32 (11753110_a_at) / RFU CDHR5 (11726645_a_at) / Fold change /veh CDHR5 (11726645_a_at) / RFU RCAN1 (11760418_a_at) / Fold change /veh RCAN1 (11760418_a_at) / RFU FAM167A (11723789_a_at) / Fold change /veh FAM167A (11723789_a_at) / RFU FAM26E (11764081_at) / Fold change /veh FAM26E (11764081_at) / RFU ISYNA1 (11749810_s_at) / Fold change /veh ISYNA1 (11749810_s_at) / RFU ACY1 (11761880_at) / Fold change /veh ACY1 (11761880_at) / RFU 11764098_at / Fold change /veh 11764098_at / RFU SAMD14 (11745864_x_at) / Fold change /veh SAMD14 (11745864_x_at) / RFU NPB (11741838_a_at) / Fold change /veh NPB (11741838_a_at) / RFU TMPRSS6 (11731388_a_at) / Fold change /veh TMPRSS6 (11731388_a_at) / RFU KRTAP10-2 (11738614_at) / Fold change /veh KRTAP10-2 (11738614_at) / RFU ARHGAP8 /// PRR5-ARHGAP8 (11727945_x_at) / Fold change /veh ARHGAP8 /// PRR5-ARHGAP8 (11727945_x_at) / RFU KRTAP5-7 /// NADSYN1 (11734609_at) / Fold change /veh KRTAP5-7 /// NADSYN1 (11734609_at) / RFU RASL12 (11751679_a_at) / Fold change /veh RASL12 (11751679_a_at) / RFU CDKN2B (11736163_a_at) / Fold change /veh CDKN2B (11736163_a_at) / RFU PRF1 (11729649_at) / Fold change /veh PRF1 (11729649_at) / RFU, ZNF638 /// ZNF638-IT1 / Fold change vs veh, ZNF638 /// ZNF638-IT1 / RFU, PANK3 / Fold change vs veh, PANK3 / RFU, SH3YL1 / Fold change vs veh, SH3YL1 / RFU, ZEB2 / Fold change vs veh, ZEB2 / RFU, NRIP1 / Fold change vs veh, NRIP1 / RFU, PTTG1IP / Fold change vs veh, PTTG1IP / RFU, CAPN2 / Fold change vs veh, CAPN2 / RFU, MED14 / Fold change vs veh, MED14 / RFU, SNORA58 / Fold change vs veh, SNORA58 / RFU, C1orf63 / Fold change vs veh, C1orf63 / RFU, LRRFIP1 / Fold change vs veh, LRRFIP1 / RFU, NDUFAF7 / Fold change vs veh, NDUFAF7 / RFU, SLC12A2 / Fold change vs veh, SLC12A2 / RFU, IBTK / Fold change vs veh, IBTK / RFU, ESF1 / Fold change vs veh, ESF1 / Fold change vs veh, TMEM50B / RFU, TAOK1 / Fold change vs veh, TAOK1 / RFU, ACBD3 / Fold change vs veh, ACBD3 / RFU, TMA16 / Fold change vs veh, TMA16 / RFU, RWDD3 / Fold change vs veh, RWDD3 / RFU, BCAT1 / Fold change vs veh, BCAT1 / RFU, EDEM3 / Fold change vs veh, EDEM3 / RFU, TMEM33 / Fold change vs veh, TMEM33 / RFU, WDR75 / Fold change vs veh, WDR75 / RFU, AHCTF1 / Fold change vs veh, AHCTF1 / RFU, TFRC / Fold change vs veh, TFRC / RFU, ZDHHC17 / Fold change vs veh, ZDHHC17 / RFU, NOM1 / Fold change vs veh, NOM1 / RFU, ARL8B / Fold change vs veh, ARL8B / RFU, ZBTB11 / Fold change vs veh, ZBTB11 / RFU, TAMM41 / Fold change vs veh, TAMM41 / RFU, KIAA1704 /// LOC100996395 / Fold change vs veh, KIAA1704 /// LOC100996395 / RFU, ING1 / Fold change vs veh, ING1 / RFU, TRMT61B / Fold change vs veh, TRMT61B / RFU, FUBP3 / Fold change vs veh, FUBP3 / RFU, TP53 / Fold change vs veh, TP53 / RFU, TNKS2 / Fold change vs veh, TNKS2 / RFU, ZFP14 / Fold change vs veh, ZFP14 / RFU, ACTR2 / Fold change vs veh, ACTR2 / RFU, PPP3R1 / Fold change vs veh, PPP3R1 / RFU, PIK3R1 / Fold change vs veh, PIK3R1 / RFU, HNRNPA1 / Fold change vs veh, HNRNPA1 / RFU, RNF170 / Fold change vs veh, RNF170 / RFU, ZNF28 / Fold change vs veh, ZNF28 / RFU, RNGTT / Fold change vs veh, RNGTT / RFU, OGT / Fold change vs veh, OGT / RFU, BRD1 / Fold change vs veh, BRD1 / RFU, MARS / Fold change vs veh, MARS / RFU, ZNF655 / Fold change vs veh, ZNF655 / RFU, FAHD1 / Fold change vs veh, FAHD1 / RFU, BDP1 / Fold change vs veh, BDP1 / RFU, LRRCC1 / Fold change vs veh, LRRCC1 / RFU, ARID1A / Fold change vs veh, ARID1A / RFU, ZNF146 / Fold change vs veh, ZNF146 / RFU, ZNF330 / Fold change vs veh, ZNF330 / RFU, GPN3 / Fold change vs veh, GPN3 / RFU, C9orf123 / Fold change vs veh, C9orf123 / RFU, N4BP2L2 / Fold change vs veh, N4BP2L2 / RFU, ARFIP1 / Fold change vs veh, ARFIP1 / RFU, FAM179B / Fold change vs veh, FAM179B / RFU, BCL10 / Fold change vs veh, BCL10 / RFU, UHRF1BP1L / Fold change vs veh, UHRF1BP1L / RFU, BET1 / Fold change vs veh, BET1 / RFU, CNOT2 / Fold change vs veh, CNOT2 / RFU, ZNF268 / Fold change vs veh, ZNF268 / Fold change vs veh, ZNF507 / RFU, DGCR2 / Fold change vs veh, DGCR2 / RFU, WDSUB1 / Fold change vs veh, WDSUB1 / Fold change vs veh, HSP90B1 /// MIR3652 / RFU, ADSS / Fold change vs veh, ADSS / RFU, GK / Fold change vs veh, GK / RFU, ZNF148 / Fold change vs veh, ZNF148 / RFU, TAF9 / Fold change vs veh, TAF9 / RFU, SLC1A5 / Fold change vs veh, SLC1A5 / RFU, SLMO2 / Fold change vs veh, SLMO2 / RFU, ABCC4 / Fold change vs veh, ABCC4 / RFU, LOC101060439 /// RAP1B / Fold change vs veh, LOC101060439 /// RAP1B / RFU, RFX7 / Fold change vs veh, RFX7 / RFU, GTPBP10 / Fold change vs veh, GTPBP10 / RFU, CNEP1R1 / Fold change vs veh, CNEP1R1 / RFU, BIVM-ERCC5 /// ERCC5 / Fold change vs veh, BIVM-ERCC5 /// ERCC5 / RFU, ILF3 / Fold change vs veh, ILF3 / RFU 11762660_at / Fold change /veh 11762660_at / RFU VCAN (11757783_s_at) / Fold change /veh VCAN (11757783_s_at) / RFU DDX43 (11728927_at) / Fold change /veh DDX43 (11728927_at) / RFU KRT8 (11758188_x_at) / Fold change /veh KRT8 (11758188_x_at) / RFU NKD1 (11759106_at) / Fold change /veh NKD1 (11759106_at) / RFU SRD5A1 (11742802_a_at) / Fold change /veh SRD5A1 (11742802_a_at) / RFU TPSAB1 /// TPSB2 (11721975_s_at) / Fold change /veh TPSAB1 /// TPSB2 (11721975_s_at) / RFU GSTM3 (11746129_a_at) / Fold change /veh GSTM3 (11746129_a_at) / RFU IL23R (11737362_x_at) / Fold change /veh IL23R (11737362_x_at) / RFU TMEM51 (11727254_a_at) / Fold change /veh TMEM51 (11727254_a_at) / RFU PIWIL2 (11732686_x_at) / Fold change /veh PIWIL2 (11732686_x_at) / RFU ORM1 (11744905_x_at) / Fold change /veh ORM1 (11744905_x_at) / RFU CCDC152 (11743942_at) / Fold change /veh CCDC152 (11743942_at) / RFU ECM1 (11717891_a_at) / Fold change /veh ECM1 (11717891_a_at) / RFU IL23R (11748794_a_at) / Fold change /veh IL23R (11748794_a_at) / RFU TNFAIP8L3 (11732012_x_at) / Fold change /veh TNFAIP8L3 (11732012_x_at) / RFU MBOAT4 (11741988_at) / Fold change /veh MBOAT4 (11741988_at) / RFU 11764193_at / Fold change /veh 11764193_at / RFU TMEM53 (11763286_at) / Fold change /veh TMEM53 (11763286_at) / RFU MAGEB2 (11727129_at) / Fold change /veh MAGEB2 (11727129_at) / RFU TMEM200A (11744735_a_at) / Fold change /veh TMEM200A (11744735_a_at) / RFU CCDC152 (11751479_a_at) / Fold change /veh CCDC152 (11751479_a_at) / RFU FAM211A (11726209_a_at) / Fold change /veh FAM211A (11726209_a_at) / RFU RGS16 (11746705_a_at) / Fold change /veh RGS16 (11746705_a_at) / RFU VCAN (11755009_s_at) / Fold change /veh VCAN (11755009_s_at) / RFU RHOB (11743442_s_at) / Fold change /veh RHOB (11743442_s_at) / RFU RGS16 (11720943_a_at) / Fold change /veh RGS16 (11720943_a_at) / RFU RGS16 (11720944_at) / Fold change /veh RGS16 (11720944_at) / RFU, VPS4B / Fold change vs veh, VPS4B / RFU, CREB1 / Fold change vs veh, CREB1 / RFU, DNAJC13 / Fold change vs veh, DNAJC13 / RFU, GNAQ / Fold change vs veh, GNAQ / RFU, CDK5R1 / Fold change vs veh, CDK5R1 / RFU, ZRANB3 / Fold change vs veh, ZRANB3 / RFU, CUL4A / Fold change vs veh, CUL4A / RFU, CCNY / Fold change vs veh, CCNY / RFU, UFL1 / Fold change vs veh, UFL1 / RFU, COG3 / Fold change vs veh, COG3 / RFU, DIAPH2 / Fold change vs veh, DIAPH2 / RFU, SKA2 / Fold change vs veh, SKA2 / RFU, AFF3 / Fold change vs veh, AFF3 / RFU, LMF1 / Fold change vs veh, LMF1 / RFU, IPO11 / Fold change vs veh, IPO11 / RFU, DFFB / Fold change vs veh, DFFB / RFU, FOXP1 / Fold change vs veh, FOXP1 / RFU, CARD8 / Fold change vs veh, CARD8 / RFU, STRN3 / Fold change vs veh, STRN3 / RFU, ADK / Fold change vs veh, ADK / RFU, RASSF2 / Fold change vs veh, RASSF2 / RFU, WIPF1 / Fold change vs veh, WIPF1 / RFU, LARP1B / Fold change vs veh, LARP1B / RFU, RASA1 / Fold change vs veh, RASA1 / RFU, RB1 / Fold change vs veh, RB1 / RFU, PPFIA1 / Fold change vs veh, PPFIA1 / RFU, MAT2A / Fold change vs veh, MAT2A / RFU, CCT5 / Fold change vs veh, CCT5 / RFU, WDR92 / Fold change vs veh, WDR92 / RFU, CUX1 / Fold change vs veh, CUX1 / RFU, TTC7A / Fold change vs veh, TTC7A / RFU, TMEM135 / Fold change vs veh, TMEM135 / RFU, DEPTOR / Fold change vs veh, DEPTOR / RFU, CPM / Fold change vs veh, CPM / RFU, DNAJB6 / Fold change vs veh, DNAJB6 / RFU, CACNA2D3 / Fold change vs veh, CACNA2D3 / RFU, DTX4 / Fold change vs veh, DTX4 / RFU, TFCP2 / Fold change vs veh, TFCP2 / RFU, GMCL1 /// GMCL1P1 / Fold change vs veh, GMCL1 /// GMCL1P1 / RFU, AEBP2 / Fold change vs veh, AEBP2 / RFU, SNHG1 /// SNORD22 /// SNORD25 /// SNORD26 /// SNORD27 /// SNORD28 /// SNORD29 /// SNORD31 / Fold change vs veh, SNHG1 /// SNORD22 /// SNORD25 /// SNORD26 /// SNORD27 /// SNORD28 /// SNORD29 /// SNORD31 / Fold change (Aza/veh), C12orf56 (ProbeSet 11735607_a_at) / Fold change (ACY-1035/veh), C12orf56 (ProbeSet 11735607_a_at) / Fold change (Aza/veh), FGFR1OP (ProbeSet 11751329_s_at) / Fold change (ACY-1035/veh), FGFR1OP (ProbeSet 11751329_s_at) / Fold change (Aza/veh), VPS36 (ProbeSet 11739960_a_at) / Fold change (ACY-1035/veh), VPS36 (ProbeSet 11739960_a_at) / RFU SYPL1 (11715823_x_at) / Fold change /veh SYPL1 (11715823_x_at) / RFU IGFBP7 (11715501_s_at) / Fold change /veh IGFBP7 (11715501_s_at) / RFU REEP3 (11722064_at) / Fold change /veh REEP3 (11722064_at) / RFU IGLL1 (11728026_x_at) / Fold change /veh IGLL1 (11728026_x_at): dose or concentration left out as unconfirmed
Conditions: MV-4-11 cells, 48 hours

## Nc1ncn([C@@H]2O[C@H](CO)[C@@H](O)[C@H]2O)c(=O)n1 [azacitidine]
  RFU CAMK2N1 (11719241_x_at): 56.90 RFU

Reference: paper PMC5218480 (PLoS ONE, 2017)
